From the supplement of paper PMC13380429

How the values were obtained:
Conditions in all cases: 72 h
Caco-2 [1] = test: relative viability EC50 (midpoint between 100% and the lowest measured viability); higher = less toxic
Calu-3 [2] = test: as above
U2OS [3] = test: as above
HepG2 [4] = test: as above
Caco-2 [5] = test: drug sensitivity score (DSS) for viability; higher = more toxic; extreme values may be limits of the assay
Calu-3 [6] = test: as above
Vero E6 [7] = test: as above
U2OS [8] = test: as above
HepG2 [9] = test: as above
Caco-2 [10] = test: cell viability relative to DMSO; higher = less toxic
Calu-3 [11] = test: as above
Vero E6 [12] = test: as above
U2OS [13] = test: as above
HepG2 [14] = test: as above
Vero E6 [15] = test: relative viability EC50 (midpoint between 100% and the lowest measured viability); higher = less toxic

| SMILES | relative viability EC50 (Caco-2 [1]) | relative viability EC50 (Calu-3 [2]) | relative viability EC50 (U2OS [3]) | relative viability EC50 (HepG2 [4]) | drug sensitivity score (Caco-2 [5]) | drug sensitivity score (Calu-3 [6]) | drug sensitivity score (Vero E6 [7]) | drug sensitivity score (U2OS [8]) | drug sensitivity score (HepG2 [9]) | cell viability (Caco-2 [10]; 1 nM) | cell viability (Caco-2 [10]; 10 nM) | cell viability (Caco-2 [10]; 100 nM) | cell viability (Caco-2 [10]; 1000 nM) | cell viability (Caco-2 [10]; 10000 nM) | cell viability (Calu-3 [11]; 1 nM) | cell viability (Calu-3 [11]; 10 nM) | cell viability (Calu-3 [11]; 100 nM) | cell viability (Calu-3 [11]; 1000 nM) | cell viability (Calu-3 [11]; 10000 nM) | cell viability (Vero E6 [12]; 1 nM) | cell viability (Vero E6 [12]; 10 nM) | cell viability (Vero E6 [12]; 100 nM) | cell viability (Vero E6 [12]; 1000 nM) | cell viability (Vero E6 [12]; 10000 nM) | cell viability (U2OS [13]; 1 nM) | cell viability (U2OS [13]; 10 nM) | cell viability (U2OS [13]; 100 nM) | cell viability (U2OS [13]; 1000 nM) | cell viability (U2OS [13]; 10000 nM) | cell viability (HepG2 [14]; 1 nM) | cell viability (HepG2 [14]; 10 nM) | cell viability (HepG2 [14]; 100 nM) | cell viability (HepG2 [14]; 1000 nM) | cell viability (HepG2 [14]; 10000 nM) | relative viability EC50 (Vero E6 [15]) |
| --- | --- | --- | --- | --- | --- | --- | --- | --- | --- | --- | --- | --- | --- | --- | --- | --- | --- | --- | --- | --- | --- | --- | --- | --- | --- | --- | --- | --- | --- | --- | --- | --- | --- | --- | --- |
| O=C1C(Cl)=C(NCCN2CCOCC2)C(=O)c2ncccc21 | 1.46 µM | 3.61 µM | 2.8 µM | 2.04 µM | 9.4 | 4.7 | 1.7 | 6.2 | 7.8 | 94% | 90.9% | 89.5% | 68.4% | 1.1% | 110% | 104% | 100% | 109% | 5.1% | 102% | 100% | 100% | 99.3% | 65.4% | 98.1% | 94.1% | 99.5% | 95.3% | 0% | 94% | 90.7% | 87.6% | 86.1% | 1.6% |  |
| C[C@@H]1CC(=O)NN=C1c1ccc(NN=C(C#N)C#N)cc1 [levosimendan] | > 10 µM | > 10 µM |  | > 10 µM | 0 | 0 | 0 | 1.8 | 0 | 97.2% | 113% | 98.9% | 96% | 94.6% | 93.7% | 95.8% | 100% | 97.3% | 109% | 95.6% | 102% | 85.7% | 103% | 99% | 99% | 96.8% | 101% | 96.2% | 71.3% | 101% | 102% | 98.5% | 99.6% | 88.4% | > 10 µM |
| NC(=O)c1nc(F)cnc1O [favipiravir] | > 10 µM | > 10 µM |  | > 10 µM | 0 | 0 | 0 |  | 0 | 88.5% | 91.7% | 71.8% | 84.7% | 88.6% | 100% | 105% | 98.5% | 111% | 97.7% | 109% | 88.4% | 101% | 96.8% | 103% |  |  |  |  |  | 102% | 98.8% | 103% | 79.1% | 118% | > 10 µM |
| N[C@@H](C(=O)N[C@@H]1C(=O)N2C(C(=O)O)=C(Cl)CC[C@H]12)c1ccccc1 [loracarbef] | > 10 µM | > 10 µM | > 10 µM | > 10 µM | 0 | 0 |  | 0 | 0 | 107% | 104% | 95.9% | 91.5% | 98.2% | 88.5% | 102% | 96.6% | 102% | 99% |  |  |  |  |  | 93.6% | 102% | 95.7% | 100% | 101% | 100% | 100% | 96.3% | 92% | 97.6% |  |
| OCc1ccc(-c2nn(Cc3ccccc3)c3ccccc23)o1 [YC-1] | > 10 µM | > 10 µM |  | 1.5 µM | 0 | 0 | 0 | 1.5 | 9.5 | 106% | 112% | 105% | 113% | 97.4% | 106% | 93.2% | 109% | 104% | 115% | 103% | 103% | 104% | 104% | 98.1% | 104% | 105% | 102% | 101% | 65.6% | 104% | 112% | 102% | 73.5% | 0.4% | > 10 µM |
| CCn1c(=O)/c(=C2\Sc3ccccc3N2C)s/c1=C\c1cccc[n+]1CC [MKT-077] | 2.43 µM | 2.64 µM |  | 3.23 µM | 3.8 | 5.2 | 0.9 | 3.5 | 2.6 | 92.5% | 93.7% | 100% | 95% | 44% | 96.4% | 99.9% | 101% | 94.8% | 20.8% | 100% | 97.1% | 95.3% | 90.8% | 81% | 97.8% | 98.4% | 96.2% | 94.3% | 51.4% | 104% | 92.8% | 109% | 100% | 49% | > 10 µM |
| COc1ccc(CCC(=O)c2c(O)cc(O[C@@H]3O[C@H](CO)[C@@H](O)[C@H](O)[C@H]3O[C@@H]3O[C@@H](C)[C@H](O)[C@@H](O)[C@H]3O)cc2O)cc1O [Neohesperidin dihydrochalcone (Nhdc)] | > 10 µM | > 10 µM |  | > 10 µM | 0 | 0 | 0 |  | 0 | 102% | 104% | 95.2% | 94.2% | 106% | 108% | 92.8% | 102% | 99.6% | 109% | 103% | 104% | 99.9% | 104% | 99.7% |  |  |  |  |  | 101% | 110% | 108% | 107% | 92.1% | > 10 µM |
| CCCCOC(=O)c1ccccc1Nc1cccc(C(F)(F)F)c1 [ufenamate] | > 10 µM | > 10 µM | > 10 µM |  | 0 | 0 | 0 | 0 |  | 96.2% | 102% | 94.4% | 93.7% | 98.1% | 105% | 87.3% | 91.8% | 93.7% | 94.7% | 110% | 104% | 106% | 106% | 98.5% | 91.7% | 98.7% | 92.4% | 100% | 108% |  |  |  |  |  | > 10 µM |
| Cc1noc(-c2ccc(-c3ccc(CC(=O)O)cc3)cc2)c1NC(=O)O[C@H](C)c1ccccc1 [AM095] | > 10 µM | > 10 µM | > 10 µM | > 10 µM | 0 | 0 | 3.9 | 0 | 0 | 91.2% | 97.4% | 93.3% | 95.2% | 94.9% | 114% | 95.7% | 95.7% | 98.3% | 102% | 95% | 98% | 91.4% | 81.3% | 64.2% | 94.9% | 95.3% | 99% | 93% | 97.5% | 87.3% | 104% | 99.8% | 101% | 91.6% |  |
| N[C@H]1CC[C@H](N[C@@H]2C[C@H]2c2ccccc2)CC1 [ORY-1001] | > 10 µM | > 10 µM | > 10 µM |  | 0 | 0 | 0 | 0 |  | 93.7% | 99.5% | 93.2% | 100% | 100% | 93.2% | 105% | 94.1% | 99.3% | 95.3% | 97.7% | 103% | 99% | 96.3% | 103% | 96.3% | 98.7% | 97.4% | 101% | 98.4% |  |  |  |  |  | > 10 µM |
| Cc1cncc(CN2CCC(=C3c4ccc(Cl)cc4CCc4cccnc43)CC2)c1 [rupatadine] | > 10 µM | > 10 µM | > 10 µM |  | 0.7 | 0 | 0 | 0 | 1.9 | 98.3% | 102% | 93.8% | 90.2% | 88.3% | 105% | 97.1% | 99.9% | 109% | 113% | 99% | 102% | 96.8% | 100% | 102% | 101% | 91.9% | 99.5% | 95.6% | 90.3% | 112% | 100% | 99.2% | 95.5% | 71.9% | > 10 µM |
| Cc1c(C)c2c(c(C)c1OC(=O)CCC(=O)OCCO)CC[C@@](C)(CCC[C@H](C)CCC[C@H](C)CCCC(C)C)O2 [tocofersolan] | > 10 µM | > 10 µM |  | > 10 µM | 0 | 0 | 0 | 1.3 | 0 | 96.8% | 105% | 106% | 101% | 90.2% | 105% | 101% | 105% | 104% | 95.2% | 97.8% | 97.9% | 95.9% | 94.9% | 99.3% | 102% | 105% | 99% | 98.4% | 72.9% | 98.4% | 99.8% | 95% | 103% | 100% | > 10 µM |
| Nc1nc(N)c2nc(-c3cccc(O)c3)cnc2n1 | > 10 µM | 1.4 µM |  | 2 µM | 1.6 | 6.6 | 0.2 | 3.2 | 3.9 | 93.5% | 105% | 99.1% | 84.5% | 86.1% | 99.9% | 97.5% | 103% | 80% | 34.1% | 103% | 95.5% | 97.7% | 98.4% | 86.7% | 95.6% | 99.4% | 99.7% | 95.5% | 51.7% | 98.1% | 99.7% | 102% | 92.5% | 49.6% | > 10 µM |
| C[n+]1ccccc1C=NO [pralidoxime] | > 10 µM | > 10 µM | > 10 µM | > 10 µM | 0 | 0 |  | 0 | 0 | 103% | 94.5% | 105% | 99.8% | 95% | 96.6% | 93.1% | 93.8% | 91.3% | 110% |  |  |  |  |  | 100% | 97.4% | 103% | 98.4% | 103% | 106% | 115% | 102% | 101% | 89.7% |  |
| Cn1nnnc1SCC1=C(C(=O)O)N2C(=O)[C@@H](NC(=O)[C@H](OC=O)c3ccccc3)[C@H]2SC1 [cefamandole-nafate] | > 10 µM | > 10 µM |  | > 10 µM | 0 | 0 | 0 |  | 0 | 97.9% | 91.8% | 98.6% | 99.4% | 100% | 90.2% | 108% | 94.4% | 94.1% | 92.6% | 104% | 104% | 96.9% | 102% | 104% |  |  |  |  |  | 85.1% | 103% | 100% | 94.3% | 93.3% | > 10 µM |
| Cc1cc(C)cc(C(=O)O[C@H]2C[C@H]3CC[C@@H](C2)N3C)c1 [tropanyl-3,5-dimethylbenzoate] | > 10 µM | > 10 µM |  | > 10 µM | 0 | 0 | 0 |  | 0 | 104% | 97.6% | 92.7% | 102% | 94.9% | 99.7% | 107% | 98.2% | 106% | 93.3% | 91.8% | 94.3% | 96.3% | 91.7% | 108% |  |  |  |  |  | 99.5% | 106% | 102% | 92.7% | 93.2% | > 10 µM |
